The values below come from PMC8329197, “Compounds targeting OSBPL7 increase ABCA1-dependent cholesterol efflux preserving kidney function in two models of kidney disease” (Nature Communications, 2021).

Values joined by “and” are separate entries in the source; they are usually repeats but may differ in a detail not shown here. Equal values may be shown once. Bounds are passed on as bounds.

As a reminder, the clearance is a measure of how efficiently the substance is removed, as volume per time. The half-life is the time needed for the level to fall by half in the phase considered.

The subject of data set [1] is Adriamycin (ADR)-induced nephropathy in Balb/c mice. The experiment in a line: ADR nephropathy: blinded histology of PAS-stained kidney sections. The format is in vivo, mouse. How it is done: (§1) Formalin-fixed paraffin-embedded kidney cortex sections 4 μm thick were stained with Periodic acid-Schiff (PAS). The slides were analyzed by a renal pathologist in a double-blind design. Glomerular sclerosis, (global and segmental), podocyte hypertrophy and podocyte hyperplasia were expressed as the percentage of glomeruli found with these abnormalities. Tubular microcysts and interstitial inflammation were scored on a 0–4 scale where 0 = 0%, 0.5 = 1–10%, 1 = 11–25%, 2: 26–50 %, 3: 51–75%, and 4 = more than 75% damage.

Data set [2] shares this test system. Description: ADR nephropathy: IL-1β and MCP-1 mRNA in kidney cortex. The class given is in vivo, mouse. How it is done: RNA was isolated using RNEasy Plus Mini kit (Qiagen). Reverse transcription was performed using qScript cDNA Super Mix (Quantabio) according to the manufacturer’s instructions. Quantitative real-time PCR was performed using TaqMan Fast Universal PCR Master Mix and Taqman gene expression assays (Supplementary Table 7).

Data set [3] relates to Col4a3 KO mice. Description: Alport syndrome model: mesangial expansion score in PAS-stained kidney sections. The class given is in vivo, mouse. The following applies: age 8 weeks, Cpd G 100 mg/Kg/day. How it is done: as §1
Data set [4] relates to Col4a3 KO mice. Description: Alport syndrome model: serum cholesterol and triglycerides. The format is in vivo, mouse.
A further data set has as its system CYPs (HLM.). The experiment in a line: CYP inhibition in HLM. The class given is in vitro ADME, human.
The subject of a further data set is PgP. Description: PgP inhibition. The class given is in vitro ADME.
The next data set in a line: Hepatocytes Clint, human. The class given is in vitro ADME.
Data set [5] can be described thus: Rat single-dose pharmacokinetics. The settings on record: in vivo.
The subject of data set [6] is Col4a3 KO mice. The experiment in a line: Alport syndrome model: survival study, treatment from 6 weeks of age.
Another data set concerns T1, OSBPL7.
T1 construct: Plasmids expressing each as a full-length protein with a C-terminal FLAG tag were obtained; expressed in transfected cells; host or cells: HEK293
The experiment in a line: Competition with ^3H-Cpd K UV cross-linking to FLAG-tagged OSBPL7 in HEK293 cells (immunoprecipitation, autoradiography). The class given is binding, human. More on the design: OSBP7 percentage of inhibition / OSBP7 percentage of inhibition, average: concentration or dose not given beside the values; OSBPL7 Competition %: dose or concentration left out as unconfirmed. How it is done: Briefly, a plasmid expressing a candidate target of interest fused with a FLAG tag was transfected into HEK293 cells. After 24 h, tritiated compound K at a concentration capable of inducing ABCA1-mediated cholesterol efflux (1.0 μM) was added for 3 h, then the live cells were exposed to UV-light (ʎ = 336 nm) to query potential compound/target cross-linking in situ. Cell lysates were prepared, the expressed protein was then selectively immunoprecipitated using an anti-FLAG antibody coupled to sepharose beads, bound proteins were separated by SDS-PAGE, and two identical blots were prepared and probed by western blot and by autoradiography to detect protein expression and presence or absence of compound crosslinking, respectively. The flow chart of this screen is illustrated in Fig. 2. Figure 2d illustrates the ability of Cpd A and Cpd G to displace tritiated Cpd K from overexpressed and immunoprecipitated OSBPL7. Figure 3b illustrates the use of this assay to detect binding of tritiated Cpd K to overexpressed and immunoprecipitated variants of OSBPL7 containing point mutations in the predicted oxysterol binging pocket of OSBPL7. The advantages of this method are: i. the use of plasmid transfection leads to high expression of each candidate which reduces the likelihood to miss an authentic target for those which may be expressed at low endogenous levels, ii. the interaction of the chemical probe with its target occurs in a relevant biological context (live cells) at a pharmacologically active concentration, and iii. immunoprecipitation allows the expressed protein of interest to be purified from background proteins, substantially improving the signal/noise ratio.

In a further data set the test system is ABCA1 protein. The experiment in a line: ABCA1 western blot in podocyte whole-cell lysates. The class given is cell-based, human. The settings on record: Cpd G 10 µM, Cpd A 5 µM; podocytes. How it is done:
Cell lines were purchased from ATCC and subcultured for no more than passage 15, except for human podocytes, which were originally from Dr Jochen Reiser. Conditionally immortalized human podocytes were cultured under permissive conditions at 33 °C, in RPMI medium (Corning) containing 10% FBS (GIBCO), 1% penicillin/streptomycin, 0.01 mg/ml recombinant human insulin, 0.0055 mg/ml human transferrin (substantially iron-free), and 0.005 μg/ml sodium selenite (ITS, Corning). To induce differentiation, podocytes were cultured at 37 °C for 14 days in RPMI medium containing 10% FBS (GIBCO) and 1% penicillin/streptomycin. Differentiated podocytes were starved in RPMI-0.2% FBS for 18 h and then treated with 1 μM, 5 μM, and 10 μM of compounds freshly prepared in DMSO for 18 h at 37 °C as indicated.
Lysates, or cell fractions were incubated in Laemmli buffer at 55 °C for 10 min under reducing conditions. A total of 30 μg of protein from cell lysates or one-third of the volume collected in cell fraction preparations was separated by SDS-PAGE in 4–20% gradient gels (Biorad) and proteins were then transferred to PVDF membranes. […] Signals were detected after incubation with Westernbright ECL HRP substrate (Advansta) and luminescence signals were captured with Azure C600 Gel Imaging workstation (Azure Biosystems Inc, USA) or X-ray films.
(In western blotting, separated proteins are transferred to a membrane and probed.)

The mark [7] stands for this setting: ADR + Cpd G 100 mg/Kg, single animals.
Setting [8] is: score 0: 0%, 0.5: 1–10%, 1: 11–25%, 2: 26–50%, 3: 51–75%, 4: >75%, single animals.

As to `O=C(N[C@@H]1CCCC[C@H]1O)c1cnc(OCC(F)(F)F)c(-c2ccc(Cl)c(Cl)c2)c1` [Cpd G], in [1] (ADR + Cpd G 100 mg/Kg), the “Global glomerular sclerosis (% of gloms with), median” value was 0%; the “Interstitial Inflammation (scale 0-4), Range” value is 0-0.5; the “Mesangial expansion (scale 0-5), Range” value is on record as 1-2; the “Podocyte hyperplasia (% of gloms with), median” value was 0%. For the same compound, in data set [1] (ADR + Cpd G 100 mg/Kg), the “Segmental glomerular sclerosis (% of gloms with), median” value is 0%; the “Tubular microcysts (scale 0-4), Range” value was 0 -1; the “podocyte hypertrophy (% of gloms with), median” value is recorded as 0%. Moreover, in [1] (setting [7]), the “Global Glom. Sclerosis, % of glomeruli with” value amounted to 0%; the “Mesangial Expansion (Scale 0-5)” value was 1.25 and 1.5 and 1; the “Podocyte Hyperplasia, % of glomeruli with” value is listed as 0%; the “Podocyte Hypertrophy, % of glomeruli with” value is recorded as 0%. In addition, the “Segmental Glom. Sclerosis, % of glomeruli with” value in [1] (setting [7]) is 0%. Besides, in [1] (setting [8]), the “Interstitial Inflammation (Scale 0-4)” value was 0 and 0.5; the “Tubular Microcysts (Scale 0-4)” value was 1 and 0 and 0.5. Besides, in [2] (ADR + Cpd G), the “IL1β in kidney cortex” value is on record as “reduced” and the “MCP-1 in kidney cortex” value is on record as “reduced”. For the same compound, the “Relative MCP1/PGK1 mRNA Expression (RQ)” value in data set [2] (kidney cortexes after ADR injection, No ADR group as reference, individual mice) is 0.39 and 4.08 (2×) and 0.99 and 0.91 and 1.65 (2×) and 0.3536 and 0.2392 and 0.3907 and 0.9918 and 0.906 and 0.35 and 0.24. The “Relative MCP1/PGK1 mRNA Expression (RQ), Median” value in data set [2] (kidney cortexes after ADR injection, group median) turned out to be 0.91. In addition, in data set [2] (kidney cortexes, ADR, 100 mg/Kg/Day for 28 days, No ADR group as reference, individual mice, 100 mg/kg/day), the “Relative IL1-B/PGK1 mRNA Expression (RQ)” value is 0.44 and 1.49 and 0.38 and 0.75 and 0.61 and 2.626 and 0.452 and 0.4443 and 1.494 and 0.3797 and 0.7453 and 0.6111 and 2.63 and 0.45. For the same compound, the “Relative IL1-B/PGK1 mRNA Expression (RQ), Median” value in data set [2] (kidney cortexes, ADR, 100 mg/Kg/Day for 28 days, group median) stood at 0.61. Besides, the “MESANGIAL EXPANSION (scale 1-5), Median” value with Col4a3 KO mice [3] is recorded as 2. Moreover, the “MESANGIAL EXPANSION (scale 1-5)” value in the data set on Col4a3 KO mice [3] (single animals) is 2 and 2.5 and 1.5. For the same compound, the “SERUM TRIGLYCERIDES” value in the data set on Col4a3 KO mice [4] (8 week-old Col4a3 KO, Cpd G 4 weeks, single animals) is 78 mg/dL and 59 mg/dL and 83 mg/dL and 72 mg/dL. In addition, in the data set on Col4a3 KO mice [4] (Col4a3 KO, Cpd G 100 mg/kg), the “SERUM CHOLESTEROL” value is “no effect on serum cholesterol” and the “SERUM TRIGLYCERIDES” value is “tended to reduce serum triglycerides”. Moreover, in the data set on Col4a3 KO mice [4] (Col4a3 KO, Cpd G 28 days, single animals), the “SERUM CHOLESTEROL” value is 94 mg/dL and 139 mg/dL and 205 mg/dL and 126 mg/dL. For the same compound, in the data set with CYPs (HLM.), the “CYPs (HLM.)” value is recorded as over 25 µM. Also, the PgP inhibition entry with PgP is reported as “Negative”. Moreover, the “Hepatocytes Clint (Fh%) (r/h)” value in the data set “Hepatocytes Clint, human” is over 80%. In addition, in [5], the bioavailability is 105%, the clearance came out at 2.5 mL/min/kg and the half-life is 8.9 h. Moreover, in [5] (read-out: Vss), the Vd is 1.5 L/kg. Also, in the data set with Col4a3 KO mice [6] (Col4A3 KO, Cpd G 100 mg/Kg/day started at week 6, single animals), the “SURVIVAL CURVE: day with status 1= dead” value is 67 days and 70 days and 73 days and 78 days. Further, in the data set on Col4a3 KO mice [6] (Col4a3 KO, treatment initiated at 6 weeks of age), the “Increased life span compared to controls” value is recorded as “approximately 15%”.
For `O=C(N[C@@H]1CCCC[C@H]1O)c1ccc(OCC(F)(F)F)c(-c2ccc(Cl)c(Cl)c2)n1` [Cpd A], the “OSBP7 percentage of inhibition, average” value with OSBPL7 (average of 3) was 65%. The “OSBPL7 Competition %” value with OSBPL7 (average(SEM)) was 65(8.1) %. In the data set on OSBPL7 (single experiments (3 per compound)), the “OSBP7 percentage of inhibition” value was 50% and 78% and 67%. In addition, in the data set with OSBPL7 (unlabeled Cpd K at 50-fold excess, Cpd A, Cpd G 10 and 50 µM), the “Competition for ^3H-Cpd K binding to OSBPL7” value is “effective competitors”. In addition, in the data set on ABCA1 protein, the “ABCA1 protein levels in whole-cell lysates” value was “significantly increased ABCA1 protein levels”.
